Source: patent US20150182546A1, “THERAPEUTIC AGENT FOR ENHANCING MITOCHONDRIAL FUNCTION” (Mitochondrial Concepts LLC, priority 2013, published 2015)

Assays:
Assay type in all cases: in vivo, human
[1] = Oral administration of adenylosuccinate in clinical trials
Excerpt: The administration of the adenylosuccinate may be accomplished via several approaches. It is possible to administer adenylosuccinate by means of a sub-cutaneous pump. […] Alternatively, adenylosuccinate might be suitably packaged for timed release or trans-dermal application.

ALS patient = assay: Treatment of an ALS patient with oral 4SAS; conditions: ALS patient previously unable to speak; oral dosage
patient of advanced age = assay: Treatment of a patient of advanced age with oral 4SAS; conditions: patient in early 70s; oral dosage
[2] = test system: pseudohypertrophic muscular dystrophy patients; assay: Treatment of pseudohypertrophic muscular dystrophy patients with 4SAS

Compound	efficacy of oral administration [1]	capacity to speak (ALS patient)	energy (patient of advanced age)	healing (patient of advanced age)	posture (patient of advanced age)	Improved? ([2]; Patient A, severity 1, therapy 81-89, 1 mg-10 mg, 10-20 mg, 100 mg, 200 mg)	Improved? ([2]; Patient C, severity 3, therapy 81-84, 1 mg-10 mg, 10-20 mg)	Improved? ([2]; Patient D, severity 4, therapy 81-84, 1 mg-10 mg, 10-20 mg)	Improved? ([2]; Patient E, severity 5, therapy 81-84, 1 mg-10 mg, 10-20 mg)	Improved? ([2]; Patient F, therapy 88-89, 70 mg)	Improved? ([2]; Patient G, therapy 87-89, 150 mg, 333 mg)	Improved? ([2]; Patient H, therapy 88-89, 200 mg, 300 mg)	Improved? ([2]; Patient I, therapy 86-89, 10 mg, 25 mg, 100 mg)	Improved? ([2]; Patient J, therapy 86-89, 1200 mg)	Improved? ([2]; Patient K, therapy 87-89, 200 mg, 300 mg)	Improved? ([2]; Patient L, therapy 87-89, dosage small)	Improved? ([2]; Patient N, therapy 89-89, 300 mg)	strength and related functionality ([2]; thirteen young PMD patients at various stages, intraperitoneal, subcutaneous and oral dosages)
O=C(O)CC(Nc1ncnc2c1ncn2[C@@H]1O[C@H](COP(=O)(O)O)[C@@H](O)[C@H]1O)C(=O)O (stereo partly drawn) [adenylosuccinate]	proven efficacious	–	–	–	–	–	–	–	–	–	–	–	–	–	–	–	–	–
O=C([O-])C[C@H](Nc1ncnc2c1ncn2[C@@H]1O[C@H](COP(=O)([O-])[O-])[C@@H](O)[C@H]1O)C(=O)[O-].[Na+].[Na+].[Na+].[Na+] [4SAS, tetrasodium adenylosuccinate]	–	temporarily regained capacity to speak intelligibly	increased energy	accelerated healing	improved posture	Yes	Yes	Yes	Yes	Yes	Yes	Yes	Yes	Yes	Yes	Yes	Yes	increased strength and related functionality
